{
  "source": "paper PMC8868160",
  "about": "“Antioxidant and Anti-α-Glucosidase Activities of Various Solvent Extracts and Major Bioactive Components from the Fruits of Crataegus pinnatifida” (Antioxidants, 2022)",
  "key": {"[1]": {"assay": "DPPH radical scavenging activity", "assay_type": "biochemical", "method": "The scavenging activity of DPPH radical was investigated as described with slight modification. DPPH solution was prepared diluted by EtOH to reach the final concentration of 200 µM. Different concentrations (200, 100, 50, 25, and 12.5 µg/mL) of extracts or compounds (100 µL) were mixed with DPPH solution (100 µL) and incubated for 30 min at room temperature and in darkness, and the absorbance of the mixture was measured at 520 nm. DPPH radical scavenging activity was calculated with the following formula: DPPH scavenging activity (%) = (Ac − At)/Ac × 100, where At is the absorbance of the test sample, and Ac is the absorbance of the control (untreated group). BHT was used as the positive control. All half-maximal inhibitory concentration (IC50) values of tested activities were determined by the linear regression of the percentage of remaining DPPH radical against the sample’s concentration."}, "[2]": {"assay": "ABTS radical scavenging activity", "assay_type": "biochemical", "method": "ABTS radical scavenging activity of each extract was measured based on the method with slight changes. In brief, the stock of working solution was prepared by the mix of 28 mM ABTS solution and 9.6 mM potassium persulfate with ddH2O (final concentration, 1/1, v/v) and leaving the mixture in the dark for about 16 h at room temperature before use. The working solution was diluted by EtOH to reach the absorbance of 0.70 ± 0.02 at 740 nm for further experiments. Different concentrations (200, 100, 50, 20, and 12.5 µg/mL) of extracts or compounds (10 µL) were mixed with the working solution (190 μL). The mixture was incubated at room temperature for 6 min, the antioxidant activity of the mixture was determined by calculating the decrease in absorbance measured at 740 nm by the following equation:ABTS radical inhibiting activity (%) = (Ac − At)/Ac × 100,\nWhere Ac and At are the absorbance of the control (untreated group) and test sample, respectively. The IC50 values of all tested activities were determined by the liner regression of the percentage of remaining ABTS radical against the sample’s concentration."}, "[3]": {"assay": "Superoxide radical scavenging activity (PMS/NADH-NBT system)", "assay_type": "biochemical", "details": "isolated components (Table 5)", "method": "The scavenging activity of superoxide anion radical (O2^•−) was evaluated using a modified method. NBT (300 μM), NADH (468 μM), and PMS (120 μM) were prepared with dilution by Tris-HCl buffer (16 mM, pH 8.0), respectively. An amount of 50 μL of NBT, PMS, and different concentrations (400, 200, 10, 50, and 25 µg/mL) of extracts or compounds were mixed. An amount of 50 μL NADH solution was added, and the reaction was initiated to produce superoxide radicals. The absorbance was measured at 560 nm after incubating at room temperature for 5 min. The scavenging activity was measured by the following equation:Superoxide radical scavenging activity = (Ac − At)/Ac × 100, where At is the absorbance of the test sample, and Ac is the absorbance of the control (untreated group). The IC50 values of all tested activities were determined by the linear regression of the percentage of remaining superoxide radical against the sample concentration."}, "[4]": {"assay": "Hydroxyl radical scavenging activity (Fenton reaction, deoxyribose)", "assay_type": "biochemical", "method": "The scavenging activity of hydroxyl radical was measured based on the method described by Mathew and Abraham with slight revision. In short, different concentrations (400, 200, 10, 50, and 25 µg/mL) of extracts or compounds (200 μL) were mixed with working solution (200 μL) contained 1 mM FeCl3, 1 mM EDTA, and 2.8 mM deoxyribose. Then, 20 μL ascorbic acid (1 mM) and 100 μL H2O2 (20 mM) in sodium phosphate buffer (20 mM pH 7.4) was added. The mixture was incubated in a water bath at 37 °C for 1 h to trigger the Fenton reaction and form a hydroxyl radical. After incubation, 2.8% TCA (200 μL) and 1% TBA (200 μL) were added and boiled in the dry bath at 100 °C for 1 h. The mixture was measured at 532 nm by the following equation:Hydroxyl radical scavenging activity (%) = (Ac − At)/Ac × 100, where At and Ac are the absorbance of the test sample and the control (untreated group), respectively. The IC50 values of all tested activities were determined by the linear regression of the percentage of remaining hydroxyl radical against the sample’s concentration."}, "[5]": {"assay": "Ferric reducing antioxidant power (FRAP)", "assay_type": "biochemical", "method": "Ferric reducing antioxidant power was measured based on previous study with slight modification. The working solution was mixed with acetate buffer (pH 3.6), ferric chloride solution (20 mM), and TPTZ solution (10 mM TPTZ in 40 mM HCl) in a proportion of 10:1:1, respectively, and freshly prepared before used. An amount of 900 μL of the working solution was warmed to 37 °C and then mixed with 100 μL of the diluted sample, blank or standard in a microcentrifuge tube. The tubes were vortexed and in the dry bath at 37 °C for 40 min. Absorbance was measured at 593 nm. […] Results are expressed in mM TE/g dry weight. Additional dilution was needed if the FRAP value measured was over the linear range of the standard curve."}, "[6]": {"target": "T1, α-glucosidase (Saccharomyces cerevisiae, UniProt P53341)", "T1 construct": "purchased Sigma-Aldrich", "T1 sequence (P53341 whole entry)": "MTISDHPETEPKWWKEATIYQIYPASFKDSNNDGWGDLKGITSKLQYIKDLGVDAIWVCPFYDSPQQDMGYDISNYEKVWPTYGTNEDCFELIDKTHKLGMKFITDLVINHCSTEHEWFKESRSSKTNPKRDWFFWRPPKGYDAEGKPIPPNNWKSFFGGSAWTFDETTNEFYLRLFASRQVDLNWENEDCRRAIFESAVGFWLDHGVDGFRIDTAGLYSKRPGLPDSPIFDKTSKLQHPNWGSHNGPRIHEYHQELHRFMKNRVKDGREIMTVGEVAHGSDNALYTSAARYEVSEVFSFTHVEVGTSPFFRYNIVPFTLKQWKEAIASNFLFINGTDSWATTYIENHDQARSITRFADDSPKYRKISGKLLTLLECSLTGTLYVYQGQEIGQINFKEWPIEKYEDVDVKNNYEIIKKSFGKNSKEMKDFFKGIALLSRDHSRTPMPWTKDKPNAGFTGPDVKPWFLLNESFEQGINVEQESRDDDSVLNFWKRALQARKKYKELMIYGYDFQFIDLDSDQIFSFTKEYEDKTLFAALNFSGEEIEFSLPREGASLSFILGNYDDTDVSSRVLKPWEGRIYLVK", "assay": "biochemical", "method": "The inhibition assay of α-glucosidase was conducted using the conditions previously reported with slight modifications. The α-Glucosidase solution was diluted by 0.1 M sodium phosphate buffer (pH 6.8) to 1 U/mL. […] Subsequently, p-NPG (0.53 mM; 380 μL), the substrate, was added and incubated in dry baths at 37 °C for 40 min after the mixture vortexed. The reaction was terminated after adding 0.1 M Na2CO3 solution (500 μL). The absorbance of released p-nitrophenol (p-PNP) was measured by calculating the decrease in absorbance measured at 400 nm by the following equation:α-Glucosidase inhibition (%) = (Ac − At)/Ac × 100, where Ac is the absorbance of the control (untreated group), and At is the absorbance of the test sample. The IC50 values of all tested activities were determined by the linear regression of the percentage of remaining α-glucosidase against the sample concentration."}, "[7]": {"details": "isolated components, BHT positive control (Table 5)"}, "[8]": {"details": "isolated components, mM Trolox equivalents per gram (Table 5)"}, "[9]": {"details": "solvent extracts, BHT positive control (Table 2)"}},
  "note": "pIC50: −log10 of the molar value. Read-outs that look alike come from different tables or passages of the source.",
  "data": [
    {"smiles": "Oc1cc(O)c2c(c1)O[C@H](c1ccc(O)c(O)c1)[C@H](O)C2", "note": "[Epicatechin, epicatechin]", "values": [
      {"measurement": "DPPH IC50", "setting": "[1]; [7]", "result": "2.53 ± 0.25", "unit": "µg/mL"},
      {"measurement": "ABTS IC50", "setting": "[2]; [7]", "result": "3.75 ± 0.03", "unit": "µg/mL"},
      {"measurement": "Superoxide IC50", "setting": "[3]", "result": "41.56 ± 0.20", "unit": "µg/mL"},
      {"measurement": "Hydroxyl IC50", "setting": "[4]; [7]", "result": "20 ± 3.49", "unit": "µg/mL"},
      {"measurement": "FRAP (TE)", "setting": "[5]; [8]", "result": "13,165.19 ± 42.42 mM/g"},
      {"measurement": "FRAP (TE)", "setting": "[5]; isolated components, mM Trolox equivalents per gram (Table 5), listed as epicatechin", "result": "≥ 7726.67 ± 39.97", "unit": "mM/g"},
      {"measurement": "IC50", "setting": "[6]; read-out: α-Glucosidase IC50 (converted)", "result": 282, "unit": "µM"}
    ]},
    {"smiles": "Cc1cc(C(C)(C)C)c(O)c(C(C)(C)C)c1", "note": "[BHT, Butylated hydroxytoluene, reference compound]", "values": [
      {"measurement": "DPPH IC50", "setting": "[1]; [7]", "result": "24.04 ± 4.40", "unit": "µg/mL"},
      {"measurement": "DPPH IC50", "setting": "[1]; solvent extracts of C. pinnatifida fruits, BHT positive control (Table 2)", "result": "34.28 ± 1.40", "unit": "µg/mL"},
      {"measurement": "ABTS IC50", "setting": "[2]; [7]", "result": "16.13 ± 3.29", "unit": "µg/mL"},
      {"measurement": "ABTS IC50", "setting": "[2]; [9]", "result": "12.34 ± 0.29", "unit": "µg/mL"},
      {"measurement": "Hydroxyl IC50", "setting": "[4]; [7]", "result": "60.62 ± 2.58", "unit": "µg/mL"},
      {"measurement": "Hydroxyl IC50", "setting": "[4]; [9]", "result": "61.51 ± 2.46", "unit": "µg/mL"},
      {"measurement": "FRAP (TE)", "setting": "[5]; [8]", "result": "4257.97 ± 44.90", "unit": "mM/g"},
      {"measurement": "FRAP (TE)", "setting": "[5]; millimolar Trolox equivalents per gram of extract (Table 2)", "result": "4257.97 ± 44.90", "unit": "mM/g"}
    ]},
    {"smiles": "Oc1cc(O)c2c(c1)O[C@H](c1ccc(O)c(O)c1)[C@H](O)[C@H]2c1c(O)cc(O)c2c1O[C@H](c1ccc(O)c(O)c1)[C@H](O)C2", "note": "[Procyanidin B2, procyanidin B2]", "values": [
      {"measurement": "DPPH IC50", "setting": "[1]; [7]", "result": "2.81 ± 0.08", "unit": "µg/mL"},
      {"measurement": "ABTS IC50", "setting": "[2]; [7]", "result": "2.91 ± 0.57", "unit": "µg/mL"},
      {"measurement": "Superoxide IC50", "setting": "[3]", "result": "37.22 ± 0.63", "unit": "µg/mL"},
      {"measurement": "Hydroxyl IC50", "setting": "[4]; [7]", "result": "13.69 ± 1.88", "unit": "µg/mL"},
      {"measurement": "FRAP (TE)", "setting": "[5]; [8]", "result": "11,092.44 ± 32.92 mM/g"},
      {"measurement": "FRAP (TE)", "setting": "[5]; isolated components, mM Trolox equivalents per gram (Table 5), listed as procyanidin B2", "result": "≥ 7726.67 ± 39.97", "unit": "mM/g"},
      {"measurement": "pIC50", "setting": "[6]", "result": 3.69}
    ]},
    {"smiles": "O=c1c(O[C@@H]2O[C@H](CO)[C@H](O)[C@H](O)[C@H]2O)c(-c2ccc(O)c(O)c2)oc2cc(O)cc(O)c12", "note": "[Hyperoside, hyperoside]", "values": [
      {"measurement": "DPPH IC50", "setting": "[1]; [7]", "result": "5.29 ± 0.17", "unit": "µg/mL"},
      {"measurement": "ABTS IC50", "setting": "[2]; [7]", "result": "18.00 ± 0.16", "unit": "µg/mL"},
      {"measurement": "Superoxide IC50", "setting": "[3]", "result": "10.59 ± 0.22", "unit": "µg/mL"},
      {"measurement": "pIC50", "setting": "[6]", "result": 4.12}
    ]}
  ]
}
